± gives the standard deviation of the averaged measurements.
Key:
IMATINIB = compound: Cc1ccc(NC(=O)c2ccc(CN3CCN(C)CC3)cc2)cc1Nc1nccc(-c2cccnc2)n1 [IMATINIB]; test: surviving fraction relative to DMSO-only wells; higher = less growth inhibition; details: exposure time: 5 days
Outline: (§1)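 Log-phase tumour cell lines were seeded at 250–500 cells per well in 384-well plates. After 24 hours they were exposed continuously for five days to inhibitors at 0.5, 1, 5, 10, 50, 100, 500 and 1000 nM. Viability was read by CellTiter-Glo luminescence after 10 minutes at room temperature, and surviving fraction is luminescence normalised to the median of DMSO-only wells. Each line was screened three times and kept only if replicate Pearson r >0.7 and median Z' >0.3.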

BMN-673 = compound: Cn1ncnc1[C@H]1c2n[nH]c(=O)c3cc(F)cc(c23)N[C@@H]1c1ccc(F)cc1 [BMN-673]; test: as above; details: exposure time: 5 days
Outline: as §1

Test System | surviving fraction (IMATINIB; 0.5 nM) | surviving fraction (IMATINIB; 1 nM) | surviving fraction (IMATINIB; 5 nM) | surviving fraction (IMATINIB; 10 nM) | surviving fraction (IMATINIB; 50 nM) | surviving fraction (IMATINIB; 500 nM) | surviving fraction (BMN-673; 0.5 nM) | surviving fraction (BMN-673; 1 nM) | surviving fraction (BMN-673; 5 nM) | surviving fraction (BMN-673; 10 nM) | surviving fraction (BMN-673; 50 nM) | surviving fraction (BMN-673; 100 nM) | surviving fraction (BMN-673; 500 nM) | surviving fraction (BMN-673; 1000 nM) | surviving fraction (IMATINIB; 100 nM) | surviving fraction (IMATINIB; 1000 nM)
MDAMB436 BREAST | 1.01 ± 0.078 | 0.984 ± 0.11 | 0.985 ± 0.079 | 0.998 ± 0.093 | 1.04 ± 0.14 | 1.1 ± 0.12 | 0.734 ± 0.039 | 0.66 ± 0.056 | 0.481 ± 0.023 | 0.434 ± 0.031 | 0.413 ± 0.032 | 0.369 ± 0.026 | 0.349 ± 0.032 | 0.332 ± 0.02 | – | –
SNU475 LIVER | 1.04 ± 0.086 | – | 1.06 ± 0.036 | 1.07 ± 0.019 | 1.09 ± 0.0085 | 1.06 ± 0.045 | 1.02 ± 0.034 | 1.01 ± 0.097 | 0.763 ± 0.47 | 0.99 ± 0.032 | 0.882 ± 0.087 | 0.851 ± 0.031 | 0.643 ± 0.025 | 0.508 ± 0.051 | – | –
HELA CERVIX | 1.13 ± 0.034 | 1.04 ± 0.039 | 1.03 ± 0.056 | – | – | 1.14 ± 0.086 | 1 ± 0.045 | 1 ± 0.058 | 1.07 ± 0.038 | 1.031 ± 0.0089 | 1.1 ± 0.11 | 1.14 ± 0.11 | 0.736 ± 0.037 | 0.606 ± 0.035 | 1.1 ± 0.016 | 1.09 ± 0.043
93VU HEADNECK | 1.11 ± 0.14 | 1.13 ± 0.1 | 1.18 ± 0.019 | – | 1.3 ± 0.099 | 1.29 ± 0.074 | 1.07 ± 0.071 | 1.14 ± 0.11 | 1.07 ± 0.14 | 0.983 ± 0.056 | 0.98 ± 0.084 | 0.925 ± 0.018 | 0.806 ± 0.087 | 0.632 ± 0.053 | 1.25 ± 0.047 | 1.1 ± 0.079
ZR751 BREAST | 1.23 ± 0.15 | 1.15 ± 0.14 | 1.05 ± 0.1 | 1.17 ± 0.23 | 1.16 ± 0.11 | 1.13 ± 0.065 | 1.23 ± 0.14 | 1.14 ± 0.15 | 1.04 ± 0.22 | 1 ± 0.15 | 1.01 ± 0.068 | 0.974 ± 0.11 | 1.04 ± 0.07 | 0.816 ± 0.017 | 1.11 ± 0.063 | 1.07 ± 0.14
S68 BREAST | 0.783 ± 0.22 | 0.996 ± 0.18 | 1.13 ± 0.17 | – | 1.25 ± 0.47 | 1.11 ± 0.28 | 1.17 ± 0.16 | 0.724 ± 0.12 | 0.602 ± 0.18 | 0.533 ± 0.095 | 0.445 ± 0.17 | 0.378 ± 0.059 | 0.357 ± 0.032 | 0.271 ± 0.054 | 1.28 ± 0.29 | 0.868 ± 0.081
SCC003 HEADNECK | 1.1 ± 0.07 | 1.1 ± 0.037 | 1.15 ± 0.036 | – | 1.09 ± 0.033 | 1.13 ± 0.062 | 1.06 ± 0.053 | 1.07 ± 0.035 | 1.04 ± 0.015 | 1.03 ± 0.044 | 0.913 ± 0.019 | 0.713 ± 0.059 | 0.588 ± 0.012 | 0.475 ± 0.066 | 1.18 ± 0.045 | 1.12 ± 0.075
RDES SOFT TISSUE | 1.37 ± 0.084 | 1.45 ± 0.048 | 1.21 ± 0.1 | 1.22 ± 0.019 | 1.12 ± 0.1 | 1.24 ± 0.13 | 1.16 ± 0.1 | 1.38 ± 0.055 | 1.07 ± 0.022 | 1.09 ± 0.093 | 0.472 ± 0.077 | 0.137 ± 0.011 | 0.035 ± 0.001 | 0.0337 ± 0.0025 | 1.21 ± 0.1 | 1.18 ± 0.082
VCAP PROSTATE | 1.11 ± 0.19 | 0.949 ± 0.15 | – | 1.17 ± 0.035 | 1.22 ± 0.12 | – | 1.11 ± 0.084 | 0.947 ± 0.086 | 0.995 ± 0.03 | 0.976 ± 0.08 | 0.758 ± 0.029 | 0.711 ± 0.12 | 0.397 ± 0.029 | 0.385 ± 0.017 | 1.12 ± 0.13 | 1.05 ± 0.086
SG43 HEADNECK | 1.16 ± 0.41 | 1.07 ± 0.36 | 0.895 ± 0.2 | 1.03 ± 0.23 | 1.01 ± 0.2 | 1.11 ± 0.13 | 1.19 ± 0.23 | 0.909 ± 0.061 | 0.694 ± 0.044 | 0.678 ± 0.046 | 0.74 ± 0.093 | 0.703 ± 0.089 | 0.678 ± 0.091 | 0.785 ± 0.056 | 0.901 ± 0.27 | 1.16 ± 0.33
CHLA90 AUTONOMIC GANGLIA | 1 ± 0.022 | 1.02 ± 0.071 | 0.993 ± 0.063 | 0.98 ± 0.12 | 1.12 ± 0.084 | – | 0.939 ± 0.01 | 0.982 ± 0.068 | 0.906 ± 0.051 | 0.897 ± 0.045 | 0.938 ± 0.086 | 0.906 ± 0.083 | 0.814 ± 0.04 | 0.714 ± 0.026 | 1.02 ± 0.091 | 1.11 ± 0.079
NY BONE | 1.08 ± 0.021 | 1.08 ± 0.022 | 1.12 ± 0.051 | 1.1 ± 0.013 | 1.107 ± 0.0076 | 1.04 ± 0.043 | 1.019 ± 0.0087 | 1.01 ± 0.025 | 1.01 ± 0.037 | 0.934 ± 0.056 | 0.928 ± 0.047 | 0.879 ± 0.033 | 0.501 ± 0.011 | 0.257 ± 0.014 | 1.11 ± 0.025 | 1.03 ± 0.019
SCC36 HEADNECK | 1.03 ± 0.11 | 1.04 ± 0.18 | 1.09 ± 0.12 | – | 1.11 ± 0.024 | 0.886 ± 0.066 | 1.13 ± 0.041 | 0.988 ± 0.087 | 0.95 ± 0.15 | 0.886 ± 0.025 | 0.77 ± 0.089 | 0.586 ± 0.0076 | 0.436 ± 0.056 | 0.352 ± 0.07 | – | –
SUM159 BREAST | – | 1.11 ± 0.015 | 1.11 ± 0.024 | 1.101 ± 0.0045 | 1.126 ± 0.009 | 1.14 ± 0.02 | 1.12 ± 0.016 | 1.104 ± 0.0035 | 1.07 ± 0.013 | 1.06 ± 0.011 | 1.079 ± 0.0027 | 1.057 ± 0.0089 | 1.04 ± 0.013 | 0.957 ± 0.031 | – | –
HCC1954 BREAST | 1.2 ± 0.15 | 1.28 ± 0.091 | 1.23 ± 0.12 | 1.27 ± 0.045 | 0.9283 ± 0.006 | 1.07 ± 0.1 | 1.01 ± 0.17 | 1.34 ± 0.34 | 1.25 ± 0.17 | 1.21 ± 0.12 | 0.907 ± 0.038 | 0.804 ± 0.042 | 0.71 ± 0.12 | 0.74 ± 0.072 | 0.887 ± 0.025 | 1 ± 0.0071
OS25HAL BONE | 1.08 ± 0.041 | 1.04 ± 0.035 | 1.03 ± 0.021 | 1.06 ± 0.027 | 1.08 ± 0.013 | – | 1.1 ± 0.034 | 1.01 ± 0.037 | 0.96 ± 0.063 | 0.994 ± 0.017 | 0.91 ± 0.06 | 0.812 ± 0.014 | 0.327 ± 0.02 | 0.178 ± 0.021 | 1.1 ± 0.017 | –
HCT15 LARGE INTESTINE | 1.13 ± 0.027 | 1.1 ± 0.035 | 1.12 ± 0.024 | 1.12 ± 0.038 | 1.15 ± 0.08 | 1.18 ± 0.054 | 1.09 ± 0.078 | 1.03 ± 0.086 | 1.06 ± 0.015 | 0.945 ± 0.021 | 0.584 ± 0.14 | 0.44 ± 0.058 | 0.146 ± 0.022 | 0.102 ± 0.0078 | 1.119 ± 0.011 | 1.14 ± 0.046
SCC47 HEADNECK | 1.12 ± 0.017 | 1.2 ± 0.065 | 1.18 ± 0.072 | 1.19 ± 0.013 | 1.19 ± 0.025 | 1.22 ± 0.11 | 1.1 ± 0.089 | 1.13 ± 0.13 | 1.13 ± 0.015 | 1.12 ± 0.058 | 1.12 ± 0.039 | 1.03 ± 0.062 | 0.937 ± 0.1 | 0.784 ± 0.1 | 1.25 ± 0.1 | 1.21 ± 0.028
U2OS BONE | 1.06 ± 0.021 | 1.02 ± 0.033 | 1.07 ± 0.028 | 1.05 ± 0.028 | 1.09 ± 0.026 | 1.15 ± 0.027 | 0.9887 ± 0.0081 | 0.994 ± 0.055 | 0.969 ± 0.018 | 0.915 ± 0.029 | 0.834 ± 0.026 | 0.732 ± 0.029 | 0.658 ± 0.029 | 0.647 ± 0.038 | 1.113 ± 0.0058 | 1.15 ± 0.018
SKBR3 BREAST | 1.02 ± 0.2 | 1.09 ± 0.09 | – | 1.11 ± 0.14 | 1.09 ± 0.081 | 1.24 ± 0.15 | 1.154 ± 0.0069 | 1.11 ± 0.12 | 0.863 ± 0.15 | 0.881 ± 0.044 | 0.774 ± 0.075 | 0.575 ± 0.078 | 0.492 ± 0.041 | 0.481 ± 0.014 | 1.16 ± 0.063 | 1.07 ± 0.15
SAOS2 BONE | 1.14 ± 0.031 | 1.14 ± 0.056 | – | 1.22 ± 0.063 | 1.22 ± 0.079 | 1.16 ± 0.029 | 1.05 ± 0.058 | 1 ± 0.029 | 0.999 ± 0.077 | 0.831 ± 0.069 | 0.675 ± 0.018 | 0.489 ± 0.047 | 0.285 ± 0.022 | 0.219 ± 0.047 | 1.2 ± 0.075 | 1.17 ± 0.097
22RV1 PROSTATE | 1.06 ± 0.068 | 1.08 ± 0.019 | 1 ± 0.1 | 1.05 ± 0.046 | – | 1.14 ± 0.14 | 1.06 ± 0.073 | 1.01 ± 0.11 | 0.871 ± 0.14 | 0.776 ± 0.18 | 0.657 ± 0.09 | 0.64 ± 0.037 | 0.468 ± 0.061 | 0.324 ± 0.048 | – | –

Source: the supplement of paper PMC6045584
